Measurements taken from patent US6685840B2, “Method for determining the dissolution rate of a solid water treatment product” (Ondeo Nalco Company, priority 2002, dated 2004).

Assay: Dissolution (release) rate of the ingredients of a solid water treatment tablet in standard cooling water
Type: physicochemical
Parameters: key: *: value was below detection limits for this moiety
Source text: After the solid water treatment product has been formed it must be tested to determine its dissolution rate in water. Test water that is formulated to closely match the type of water found in the industrial water system of interest is provided. For example, “standard” test water for cooling water in a cooling tower typically has the following features: 60 ppm Ca^2+, 18 ppm Mg^2+, 134 ppm HCO3^−, 53 ppm Cl^− and 72 ppm SO4^2−. A typical scale formation test for a model or simulation boiler typically has these concentrations of scaling contaminants in the boiler water; 10 ppm Calcium as CaCO3, 5 ppm Magnesium as CaCO3, 5 ppm silica as SiO2. Alkalinity such as caustic (NaOH) is added in sufficient quantity to maintain a pH of typically between 10.0 and 11.0 in the boiler water.
In order to determine the dissolution rate of the solid water treatment product the solid water treatment product is placed in the test water and allowed to dissolve. A fluorometer is provided and the fluorescent signal of the Fluorescent Tracer present in the solid water treatment product is measured using the fluorometer. The fluorescent signal is measured at regular intervals.
A tablet of solid cooling water treatment product of Formulation 1, {27.6% benzotriazole, 70.4% 1-hydroxyethylidene-1,1-diphosphonic acid and 2% 1,3,6,8-pyrenetetrasulfonic acid, sodium salt} is made. The tablet weighs 0.9081 grams. The tablet is placed in standard cooling water {60 ppm Ca^2+, 18 ppm Mg^2+, 134 ppm […] , 53 ppm Cl^31 and 72 ppm SO4^2−} and the dissolution rate of each ingredient in the table is measured. The dissolution rate of each ingredient present is measured using analytical techniques suitable for analyzing for each ingredient. The dissolution rate of the benzotriazole (abbreviated “BZT”) is measured using fluorometric analytical techniques, known in the art of analyzing triazoles. The dissolution rate of 1-hydroxyethylidene-1,1-diphosphonic acid (abbreviated “HEDP”) is measured using standard “colorimetric determination” analytical techniques, known in the art of analyzing for diphosphonic acids. The dissolution rate of the 1,3,6,8-pyrenetetrasulfonic acid, sodium salt (abbreviated “PTSA”) is measured using fluorometric analytical techniques.
The results of this test are shown in Table 1 Release rates for each ingredient are given in milligrams (‘mg”) per minute (“min.”).
The same tablet was made as was made in Example 1, except that this time, the tablet was coated with a polyethylene oxide material with a molecular weight of approximately 15,000 such that the final weight of finished tablet was 1.411 grams. The dissolution rate of the three ingredients in this tablet were determined, using the same analytical techniques as in Example 1.

[1] = Example 1 uncoated tablet of Formulation 1 (0.9081 g), standard cooling water, time 0 minutes
[2] = Example 1 uncoated tablet of Formulation 1, standard cooling water, time 1 minutes
[3] = Example 1 uncoated tablet of Formulation 1, standard cooling water, time 5 minutes
[4] = Example 1 uncoated tablet of Formulation 1, standard cooling water, time 10 minutes
[5] = Example 1 uncoated tablet of Formulation 1, standard cooling water, time 15 minutes
[6] = Example 1 uncoated tablet of Formulation 1, standard cooling water, time 30 minutes
[7] = Example 1 uncoated tablet of Formulation 1, standard cooling water, time 60 minutes
[8] = Example 1 uncoated tablet of Formulation 1, standard cooling water, time 130 minutes
[9] = Example 2 tablet coated with polyethylene oxide (1.411 g), time 0 minutes
[10] = Example 2 tablet coated with polyethylene oxide, time 5 minutes
[11] = Example 2 tablet coated with polyethylene oxide, time 15 minutes
[12] = Example 2 tablet coated with polyethylene oxide, time 30 minutes
[13] = Example 2 tablet coated with polyethylene oxide, time 40 minutes
[14] = Example 2 tablet coated with polyethylene oxide, time 50 minutes
[15] = Example 2 tablet coated with polyethylene oxide, time 61 minutes, in mg/min
[16] = Example 2 tablet coated with polyethylene oxide, time 75 minutes, in mg/min
[17] = Example 2 tablet coated with polyethylene oxide, time 110 minutes, in mg/min
[18] = Example 2 tablet coated with polyethylene oxide, time 180 minutes, in mg/min

SMILES: c1ccc2[nH]nnc2c1 [BZT, benzotriazole]
- Release Rate [1]: *
- Release Rate [2]: *
- Release Rate [3]: 8.75 mg per min.
- Release Rate [4]: 13.8 mg per min.
- Release Rate [5]: 11.4 mg per min.
- Release Rate [6]: 2.167 mg per min.
- Release Rate [7]: 0.5 mg per min.
- Release Rate [8]: 0.493 mg per min.
- Release Rate [9]: *
- Release Rate [10]: *
- Release Rate [11]: *
- Release Rate [12]: *
- Release Rate [13]: 0.2 mg/min
- Release Rate [14]: 2.6 mg/min
- Release Rate [15]: 5.545
- Release Rate [16]: 4.393
- Release Rate [17]: 0.829
- Release Rate [18]: 0.236

SMILES: CC(O)(P(=O)(O)O)P(=O)(O)O [HEDP, 1-hydroxyethylidene-1,1-diphosphonic acid]
- Release Rate [1]: *
- Release Rate [2]: *
- Release Rate [3]: 10.5 mg per min.
- Release Rate [4]: 20 mg per min.
- Release Rate [5]: 11.4 mg per min.
- Release Rate [6]: 0.933 mg per min.
- Release Rate [7]: 1.03 mg per min.
- Release Rate [8]: 0.0143 mg per min.
- Release Rate [9]: *
- Release Rate [10]: *
- Release Rate [11]: *
- Release Rate [12]: *
- Release Rate [13]: 1.2 mg/min
- Release Rate [14]: 2.55 mg/min
- Release Rate [15]: 8.091
- Release Rate [16]: 4.893
- Release Rate (Example 2 tablet coated with polyethylene oxide, time 110 minutes): 1.7 mg/min
- Release Rate [18]: 0.329

SMILES: O=S(=O)([O-])c1cc(S(=O)(=O)[O-])c2ccc3c(S(=O)(=O)[O-])cc(S(=O)(=O)[O-])c4ccc1c2c43.[Na+].[Na+].[Na+].[Na+] [PTSA, 1,3,6,8-pyrenetetrasulfonic acid, sodium salt]
- Release Rate [1]: *
- Release Rate [2]: *
- Release Rate [3]: 0.5925 mg per min.
- Release Rate [4]: 0.98 mg per min.
- Release Rate [5]: 0.5 mg per min.
- Release Rate [6]: 0.143 mg per min.
- Release Rate [7]: *
- Release Rate [8]: *
- Release Rate [9]: *
- Release Rate [10]: *
- Release Rate [11]: *
- Release Rate [12]: *
- Release Rate (Example 2 tablet coated with polyethylene oxide, time 40 minutes, in mg/min): 0.052
- Release Rate (Example 2 tablet coated with polyethylene oxide, time 50 minutes, in mg/min): 0.121
- Release Rate (Example 2 tablet coated with polyethylene oxide, time 61 minutes): 0.33 mg/min
- Release Rate [16]: 0.190
- Release Rate [17]: 0.0571
- Release Rate [18]: 0.00493
